Data reported in patent US20080069815A1, “ANTI-OSTEOPONTIN ANTIBODY AND USE THEREOF” (IMMUNO-BIOLOGICAL LABORATORIES CO., LTD., priority 2001, published 2008).

Key:
[1] = system: mouse collagen arthritis model; assay: Mouse collagen arthritis model (arthritogenic antibody cocktail/LPS); assay type: in vivo; conditions: for Arthritis score: 3.2 mg/kg orally once daily; for Volume of leg edema / Body weight change / Quantity of feed intake: 3.2 mg/kg
Procedure: For arthritis induction, an arthritogenic antibody cocktail (under the trade name of a cocktail for arthritis, Arthrogen-CIA® mAb, Arthritogenic mAb cocktail; manufactured by Iwai Chemical Pharmaceutical Co., Ltd.) recognizing four epitopes specific to collagen was used. To a mouse was intravenously administered the arthritogenic cocktail; 3 days later, LPS (100 μg) was intraperitoneally administered to thereby elicit arthritis. Arthritis was observed on day 3 after LPS dosing, which reached maximum on day 6.
Immediately before LPS dosing and 3 days later, the M5 antibody was intravenously administered at a dose of 40 μg, 150 μg or 400 μg. As the control group, a rabbit IgG-dosed group (at a dose of 400 μg) was arranged. Additionally, the anti-mouse TNF-α antibody was intravenously administered at a dose of 200 μg/mouse immediately before LPS administration and 3 days later. As the control group, a rat IgG-dosed group (at a dose of 200 μg) was arranged. Further, MTX was orally given (at a dose of 3.2 mg/kg) once daily on the very day of LPS dosing and thereafter. Then, MTX dissolved in 5 ml of 0.5% methyl cellulose solution was used. For the control group, 5 ml of 0.5% methyl cellulose solution was arranged.
Assessment was done per one group of five animals, concerning four items, namely arthritis score, leg edema, body weight change and feed intake.

[2] = system: human fibroblast TIG-7 adhesion to OPN; assay: Inhibition of TIG-7 cell adhesion to OPN (CHO/OPN-a coated plate); assay type: cell-based; conditions: peptide 100 μg/ml; FIG. 1A
Procedure: It was examined by the following method as to whether or not the monoclonal antibodies inhibited cell adhesion to OPN. First, a 96-well plate was precoated with various concentrations of the CHO/OPN-a at 4° C. overnight, which was then treated with 0.5% BSA in PBS under conditions of 37° C. for 10 minutes, so as to block non-specific adhesion. A human fibroblast TIG-7 or SW480 cell transformed with the cDNA of an integrin subunit α9 (referred to as “α9-transformed SW480 cell” hereinafter) was suspended in D-MEM containing 0.25% BSA; 200 μl of the resulting cell suspension (at a cell concentration of 5×10^4 cells/well) was injected in a 96-well plate precoated with the CHO/OPN-a or nOPN, in the presence or absence of various concentrations of the monoclonal antibodies or synthetic peptides, for incubation at 37° C. for one hour.
The culture medium was discarded from the plate, and all the wells were rinsed twice with D-MEM containing 0.25% BSA. The adherent cells were fixed and stained with 0.5% crystal violet in 20% methanol for 30 minutes.
All the wells were rinsed three times with water, and the adherent cells were then solubilized into 20% acetic acid. The resulting supernatant recovered from each well was analyzed with an immunoreader, to measure the absorbance at 590 nm to determine the relative count of the cells adhering to the well. […]

[3] = system: α9-transformed SW480 cell adhesion to vitronectin; assay: Adhesion of α9-transformed SW480 cell to vitronectin; assay type: cell-based, human; conditions: 1 μg/ml vitronectin; 200 μM peptide; FIG. 2A
[4] = system: murine NIH3T3 cell adhesion to mOPN/de-GST; assay: Inhibition of NIH3T3 cell adhesion to murine OPN (mOPN/de-GST); assay type: cell-based, mouse; conditions: peptide 100 μg/ml; FIG. 7
Description: It was examined by the method described in the reference (S. Kon et al., (2002): J. Cell. Biochem., 84(2), 420-432) as to whether or not the M5 antibody might inhibit cell adhesion to OPN. As the OPN, the full-length murine OPN was used, from which the GST moiety had preliminarily been removed with PreScission protease (Amersham Pharmacia Biotech, Tokyo, Japan) (referred to as “mOPN/de-GST” hereinafter) was used. As the cell, murine NIH3T3 cell was used.

## CN(Cc1cnc2nc(N)nc(N)c2n1)c1ccc(C(=O)N[C@@H](CCC(=O)O)C(=O)O)cc1 [MTX]
[1]
  Overall effect in mouse arthritis model (arthritis score, onset of arthritis, leg edema): almost no pharmaceutical efficacy
[1]; day 3
  Arthritis score: 0.8 ± 0.4
[1]; day 4
  Arthritis score: 1.8 ± 0.7
[1]; day 5
  Arthritis score: 6.0 ± 0.6
[1]; day 6
  Arthritis score: 6.0 ± 0.6
[1]; Foreleg
  Volume of leg edema: 0.047 ± 0.003 mL
[1]; Hind leg
  Volume of leg edema: 0.132 ± 0.003 mL
[1]; day 0 to day 3 post-dosing
  Body weight change: -1.5 g
  Quantity of feed intake: 0.8 g/mouse/day
[1]; day 3 to day 6 post-dosing
  Body weight change: -1.8 g
  Quantity of feed intake: 2.1 g/mouse/day

## GRGDSP
[2]
  Inhibition of TIG-7 adhesion to OPN by peptide: apparently inhibited
[3]
  Inhibition of adhesion between vitronectin and α9-transformed SW480 cell by peptide: inhibited
[4]
  Inhibition of NIH3T3 adhesion to mOPN/de-GST by peptide: apparently inhibited
